Data published in US20230092389A1, “UNIT DOSES, AEROSOLS, KITS, AND METHODS FOR TREATING HEART CONDITIONS BY PULMONARY ADMINISTRATION” (InCarda Therapeutics, Inc., priority 2017, published 2023).

How the values were obtained:
[1] = cited from earlier work
[2] = system: anesthetized Yorkshire pigs; test: PD (hemodynamics, ECG intervals) after IV or IT in anesthetized pigs (Example 5); type: in vivo
Protocol: All catheters were positioned under fluoroscopic guidance. […] Data are reported as means±SEM. Statistical analyses were performed using the SAS system (9.4) to apply ANOVA with a post-hoc Dunnett's test. Statistical significance was assumed at p<0.05.

[3] = IV 2 mg/Kg, n = 3, Mean ± SEM, package insert

## O=C(NCC1CCCCN1)c1cc(OCC(F)(F)F)ccc1OCC(F)(F)F (stereo not shown) [flecainide]
[1]; [3]
  AUClast: 4211 ± 456 ng·h/mL
  Cmax: 1644 ± 534 ng/mL
[1]; IV 2 mg/Kg, n = 3, package insert
  Tmax: 10.0 min
[1]; in vivo, iv, 2 mg/kg
  Dist. t1/2: 2.6 ± 0.7 min
  Elim. t1/2: 558 ± 6 min
[2]; IT 0.75 mg/kg, 2 min, baseline 58±1.8 ms
  QRS duration: 64 ± 1.6 ms
[2]; IT 0.75 mg/kg, 5 min, baseline 58±1.8 ms
  QRS duration: 65 ± 1.7 ms
[2]; IT 0.75 mg/kg, 30 min
  QRS duration: 58 ± 0.9 ms
[2]; IT 0.75 mg/kg, baseline 111±3.6 mmHg, p=0.9112
  mean arterial pressure: not significantly altered across 30 min
[2]; IT 0.75 mg/kg, baseline 111±6.4 bpm, p=0.9970
  heart rate: not significantly altered across 30 min
[2]; IT 0.75 mg/kg, baseline 130±5.3 ms, p=0.9351
  PR interval: not significantly changed across 30 min
[2]; IT 0.75 mg/kg, baseline 354±12.0 ms, p=0.7605
  JTc interval: not significantly changed across 30 min
[2]; IT 0.75 mg/kg, baseline 435±12.9 ms, p=0.5505
  QTc interval: not significantly changed across 30 min
[2]; IT 1.5 mg/kg, 2 min, baseline 57±0.4 ms
  QRS duration: 68 ± 1.9 ms
[2]; IT 1.5 mg/kg, 5 min
  QRS duration: 69 ± 2.2 ms
[2]; IT 1.5 mg/kg, 10 min
  QRS duration: 67 ± 1.7 ms
[2]; IT 1.5 mg/kg, 15 min
  QRS duration: 64 ± 1.3 ms
[2]; IT 1.5 mg/kg, 30 min
  QRS duration: 60 ± 0.9 ms
[2]; IT 1.5 mg/kg, baseline 108±9.4 mmHg, p=0.9894
  mean arterial pressure: not significantly altered across 30 min
[2]; IT 1.5 mg/kg, baseline 118±13.2 bpm, p=0.9999
  heart rate: not significantly altered across 30 min
[2]; IT 1.5 mg/kg, baseline 127±2.3 ms, p=0.0819
  PR interval: not significantly changed across 30 min
[2]; IT 1.5 mg/kg, baseline 364±11.5 ms, p=0.9968
  JTc interval: not significantly changed across 30 min
[2]; IT 1.5 mg/kg, baseline 436±7.1 ms, p=0.1510
  QTc interval: not significantly changed across 30 min
[2]; IV 2 mg/kg over 2 min, baseline 103±1.9 bpm, p=0.9936
  heart rate: not significantly altered across 30 min
[2]; IV 2 mg/kg, 2 min, baseline 58±1.9 ms
  QRS duration: 77 ± 6.2 ms
[2]; IV 2 mg/kg, 5 min, baseline 58±1.9 ms
  QRS duration: 76 ± 4.8 ms
[2]; IV 2 mg/kg, 30 min
  QRS duration: 59 ± 3.0 ms
[2]; IV 2 mg/kg, baseline 105±6.7 mmHg, p=0.8852
  mean arterial pressure: not significantly altered across 30 min
[2]; IV 2 mg/kg, baseline 127±7.8 ms, p=0.5161
  PR interval: not significantly changed across 30 min
[2]; IV 2 mg/kg, baseline 367±7.4 ms, p=0.9686
  JTc interval: not significantly changed across 30 min
[2]; IV 2 mg/kg, baseline 442±7.9 ms, p=0.35
  QTc interval: not significantly changed across 30 min
